# How the values were obtained:
# Type in all cases: in vivo
# Parameters in all cases: key: 0 is no effect; 10 is complete control
# [1] = tested on: bedstraw (Galium aparine); assay: Test B pre-/postemergence; conditions: for Bedstraw plant response rating: Preemergence
# Method in brief: (§1)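 Response scores run from 0, meaning no effect, to 10, meaning complete control, assigned by eye relative to controls twelve to sixteen days after spraying. Treatment was both preemergence on planted seed and postemergence on plants at the 1- to 4-leaf stage.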
# [2] = tested on: blackgrass (Alopecurus myosuroides); assay: Test B pre-/postemergence; conditions: for Blackgrass plant response rating: Preemergence
# Method in brief: as §1
# [3] = tested on: broadleaf signalgrass (Brachiaria decumbens); assay: Test B pre-/postemergence; conditions: for B. signalgrass plant response rating: Preemergence
# Method in brief: as §1
# [4] = tested on: cocklebur (Xanthium strumarium); assay: Test B pre-/postemergence; conditions: for Cocklebur plant response rating: Preemergence
# Method in brief: as §1
# corn (Zea mays) = assay: Test B pre-/postemergence; conditions: for Corn plant response rating: Preemergence
# Method in brief: as §1
# [5] = tested on: crabgrass (Digitaria sanguinalis); assay: Test B pre-/postemergence; conditions: for Crabgrass plant response rating: Preemergence
# Method in brief: as §1
# [6] = tested on: giant foxtail (Setaria faberii); assay: Test B pre-/postemergence
# Method in brief: as §1
# [7] = tested on: momingglory (Ipomoea hederacea); assay: Test B pre-/postemergence
# Method in brief: as §1
# [8] = tested on: pigweed (Amaranthus retroflexus); assay: Test B pre-/postemergence
# Method in brief: as §1
# [9] = tested on: purple nutsedge (Cyperus rotundus); assay: Test B pre-/postemergence
# Method in brief: as §1
# rape (Brassica napus) = assay: Test B pre-/postemergence
# Method in brief: as §1
# soybean (Glycine max) = assay: Test B pre-/postemergence
# Method in brief: as §1
# [10] = tested on: sugar beet (Beta vulgaris); assay: Test B pre-/postemergence
# Method in brief: as §1
# [11] = tested on: velvetleaf (Abutilon theophrasti); assay: Test B pre-/postemergence
# Method in brief: as §1
# [12] = tested on: wheat (Triticum aestivum); assay: Test B pre-/postemergence
# Method in brief: as §1
# wild oat (Avena fatua) = assay: Test B pre-/postemergence
# Method in brief: as §1
# [13] = tested on: bamyardgrass (Echinochloa crus-galli); assay: Test B flood test
# Method in brief: (§2)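 Each value is a visual injury score relative to controls, with 10 meaning complete control and 0 no effect. Evaluation took place twelve to sixteen days after the 2-leaf-stage plants were treated and kept in the greenhouse.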
# [14] = tested on: duck salad (Heteranthera limosa); assay: Test B flood test
# Method in brief: as §2
# rice (Oryza sativa) = assay: Test B flood test
# Method in brief: as §2
# [15] = tested on: smallflower flatsedge (Cyperus difformis); assay: Test B flood test
# Method in brief: as §2
# [16] = Rate 250 g/ha, Postemergence (so in the source)
# [17] = Rate 62 g/ha, Postemergence (flood test)
# [18] = Rate 125 g/ha, Postemergence, flood test
# [19] = Rate 250 g/ha, Postemergence (flood test species)
# [20] = Rate 125 g/ha, Postemergence section (flood test species)
smiles,measurement,setting,value
Cc1cnc(-c2ccc(Cl)cc2)nc1Cc1cccc(C#N)c1 [Compound 33],"Plant response rating, Bedstraw","[1]; Rate 62 g/ha, Postemergence",9
same,Bedstraw plant response rating,[1]; Rate 62 g/ha,0
same,"Plant response rating, Bedstraw","[1]; Rate 125 g/ha, Postemergence",9
same,Bedstraw plant response rating,[1]; Rate 125 g/ha,1
same,"Plant response rating, Bedstraw","[1]; Rate 250 g/ha, Postemergence",9
same,"Plant response rating, Bedstraw",[1]; [16],2
same,"Plant response rating, Blackgrass","[2]; Rate 62 g/ha, Postemergence",0
same,Blackgrass plant response rating,[2]; Rate 62 g/ha,0
same,"Plant response rating, Blackgrass","[2]; Rate 125 g/ha, Postemergence",1
same,Blackgrass plant response rating,[2]; Rate 125 g/ha,0
same,"Plant response rating, Blackgrass","[2]; Rate 250 g/ha, Postemergence",2
same,"Plant response rating, Blackgrass",[2]; [16],0
same,"Plant response rating, B. signalgrass","[3]; Rate 62 g/ha, Postemergence",1
same,B. signalgrass plant response rating,[3]; Rate 62 g/ha,0
same,"Plant response rating, B. signalgrass","[3]; Rate 125 g/ha, Postemergence",1
same,B. signalgrass plant response rating,[3]; Rate 125 g/ha,1
same,"Plant response rating, B. signalgrass","[3]; Rate 250 g/ha, Postemergence",2
same,"Plant response rating, B. signalgrass","[3]; Rate 250 g/ha, Postemergence as printed in head r139 (second section for compounds 26-50)",1
same,"Plant response rating, Cocklebur","[4]; Rate 62 g/ha, Postemergence",3
same,Cocklebur plant response rating,[4]; Rate 62 g/ha,0
same,"Plant response rating, Cocklebur","[4]; Rate 125 g/ha, Postemergence",6
same,Cocklebur plant response rating,[4]; Rate 125 g/ha,0
same,"Plant response rating, Cocklebur","[4]; Rate 250 g/ha, Postemergence",6
same,"Plant response rating, Cocklebur",[4]; [16],0
same,"Plant response rating, Corn","corn (Zea mays); Rate 62 g/ha, Postemergence",1
same,Corn plant response rating,corn (Zea mays); Rate 62 g/ha,0
same,"Plant response rating, Corn","corn (Zea mays); Rate 125 g/ha, Postemergence",1
same,Corn plant response rating,corn (Zea mays); Rate 125 g/ha,0
same,"Plant response rating, Corn","corn (Zea mays); Rate 250 g/ha, Postemergence",1
same,"Plant response rating, Corn",corn (Zea mays); [16],0
same,"Plant response rating, Crabgrass","[5]; Rate 62 g/ha, Postemergence",0
same,Crabgrass plant response rating,[5]; Rate 62 g/ha,0
same,"Plant response rating, Crabgrass","[5]; Rate 125 g/ha, Postemergence",0
same,Crabgrass plant response rating,[5]; Rate 125 g/ha,0
same,"Plant response rating, Crabgrass","[5]; Rate 250 g/ha, Postemergence",1
same,"Plant response rating, Crabgrass",[5]; [16],0
same,"Plant response rating, Giant foxtail","[6]; Rate 62 g/ha, Postemergence",0
same,Giant foxtail plant response rating,"[6]; Rate 62 g/ha, Preemergence",0
same,Giant foxtail plant response rating,"[6]; Rate 125 g/ha, Postemergence",0
same,Giant foxtail plant response rating,"[6]; Rate 125 g/ha, Preemergence",1
same,"Plant response rating, Giant foxtail","[6]; Rate 250 g/ha, Postemergence",1
same,"Plant response rating, Giant foxtail",[6]; [16],1
same,"Plant response rating, Morningglory","[7]; Rate 62 g/ha, Postemergence",2
same,Morningglory plant response rating,"[7]; Rate 62 g/ha, Preemergence",0
same,Morningglory plant response rating,"[7]; Rate 125 g/ha, Postemergence",5
same,Morningglory plant response rating,"[7]; Rate 125 g/ha, Preemergence",0
same,"Plant response rating, Morningglory","[7]; Rate 250 g/ha, Postemergence",5
same,"Plant response rating, Morningglory",[7]; [16],0
same,"Plant response rating, Redroot pigweed","[8]; Rate 62 g/ha, Postemergence",1
same,Redroot pigweed plant response rating,"[8]; Rate 62 g/ha, Preemergence",0
same,Redroot pigweed plant response rating,"[8]; Rate 125 g/ha, Postemergence",2
same,Redroot pigweed plant response rating,"[8]; Rate 125 g/ha, Preemergence",0
same,"Plant response rating, Redroot pigweed","[8]; Rate 250 g/ha, Postemergence",7
same,"Plant response rating, Redroot pigweed",[8]; [16],2
same,"Plant response rating, Nutsedge","[9]; Rate 62 g/ha, Postemergence",0
same,Nutsedge plant response rating,"[9]; Rate 62 g/ha, Preemergence",0
same,Nutsedge plant response rating,"[9]; Rate 125 g/ha, Postemergence",0
same,Nutsedge plant response rating,"[9]; Rate 125 g/ha, Preemergence",0
same,"Plant response rating, Nutsedge","[9]; Rate 250 g/ha, Postemergence",0
same,"Plant response rating, Rape","rape (Brassica napus); Rate 62 g/ha, Postemergence",6
same,Rape plant response rating,"rape (Brassica napus); Rate 62 g/ha, Preemergence",0
same,Rape plant response rating,"rape (Brassica napus); Rate 125 g/ha, Postemergence",7
same,Rape plant response rating,"rape (Brassica napus); Rate 125 g/ha, Preemergence",0
same,"Plant response rating, Rape","rape (Brassica napus); Rate 250 g/ha, Postemergence",7
same,"Plant response rating, Rape",rape (Brassica napus); [16],2
same,"Plant response rating, Soybean","soybean (Glycine max); Rate 62 g/ha, Postemergence",1
same,Soybean plant response rating,"soybean (Glycine max); Rate 62 g/ha, Preemergence",0
same,Soybean plant response rating,"soybean (Glycine max); Rate 125 g/ha, Postemergence",2
same,"Plant response rating, Soybean","soybean (Glycine max); Rate 125 g/ha, Preemergence",0
same,"Plant response rating, Soybean","soybean (Glycine max); Rate 250 g/ha, Postemergence",4
same,"Plant response rating, Soybean",soybean (Glycine max); [16],0
same,"Plant response rating, Sugarbeets","[10]; Rate 62 g/ha, Postemergence",10
same,Sugarbeets plant response rating,"[10]; Rate 62 g/ha, Preemergence",0
same,Sugarbeets plant response rating,"[10]; Rate 125 g/ha, Postemergence",10
same,"Plant response rating, Sugarbeets","[10]; Rate 125 g/ha, Preemergence",1
same,"Plant response rating, Sugarbeets","[10]; Rate 250 g/ha, Postemergence",10
same,"Plant response rating, Sugarbeets",[10]; [16],4
same,"Plant response rating, Velvetleaf","[11]; Rate 62 g/ha, Postemergence",1
same,Velvetleaf plant response rating,"[11]; Rate 62 g/ha, Preemergence",0
same,Velvetleaf plant response rating,"[11]; Rate 125 g/ha, Postemergence",4
same,"Plant response rating, Velvetleaf","[11]; Rate 125 g/ha, Preemergence",0
same,"Plant response rating, Velvetleaf","[11]; Rate 250 g/ha, Postemergence",6
same,"Plant response rating, Velvetleaf",[11]; [16],1
same,Wheat plant response rating,"[12]; Rate 62 g/ha, Postemergence",0
same,Wheat plant response rating,"[12]; Rate 62 g/ha, Preemergence",0
same,Wheat plant response rating,"[12]; Rate 125 g/ha, Postemergence",1
same,"Plant response rating, Wheat","[12]; Rate 125 g/ha, Preemergence",0
same,"Plant response rating, Wheat","[12]; Rate 250 g/ha, Postemergence",1
same,"Plant response rating, Wheat",[12]; [16],1
same,Wild oats plant response rating,"wild oat (Avena fatua); Rate 62 g/ha, Postemergence",1
same,Wild oats plant response rating,"wild oat (Avena fatua); Rate 62 g/ha, Preemergence",0
same,Wild oats plant response rating,"wild oat (Avena fatua); Rate 125 g/ha, Postemergence",2
same,"Plant response rating, Wild oats","wild oat (Avena fatua); Rate 125 g/ha, Preemergence",0
same,"Plant response rating, Wild oats","wild oat (Avena fatua); Rate 250 g/ha, Postemergence",3
same,"Plant response rating, Wild oats",wild oat (Avena fatua); [16],1
same,"Plant response rating, Barnyardgrass",[13]; [17],1
same,"Plant response rating, Barnyardgrass",[13]; [18],2
same,"Plant response rating, Barnyardgrass",[13]; [19],3
same,"Plant response rating, Ducksalad",[14]; [17],0
same,"Plant response rating, Ducksalad",[14]; [18],1
same,"Plant response rating, Ducksalad",[14]; [19],2
same,"Plant response rating, Rice",rice (Oryza sativa); [17],1
same,Rice plant response rating,rice (Oryza sativa); [20],1
same,"Plant response rating, Rice",rice (Oryza sativa); [19],3
same,"Plant response rating, S. Flatsedge",[15]; [17],3
same,S. Flatsedge plant response rating,[15]; [20],7
same,"Plant response rating, S. Flatsedge",[15]; [19],8
